CCC(C)n1ncn(-c2ccc(N3CCN(c4ccc(OC[C@H]5CO[C@](Cn6cncn6)(c6ccc(Cl)cc6Cl)O5)cc4)CC3)cc2)c1=O (mixture of isomers)
solubility (mole fraction)
Conditions | in chloroform | in dichloromethane | in ethanol | in methanol | in n-butanol | in n-propanol
288.15 K | 0.0459 | 0.0287 | 1.07e-05 | 2.35e-05 | 1.43e-05 | 1.24e-05
293.15 K | 0.048 | 0.0306 | 1.43e-05 | 2.97e-05 | 1.82e-05 | 1.61e-05
298.15 K | 0.0503 | 0.0326 | 1.89e-05 | 3.78e-05 | 2.28e-05 | 2.09e-05
303.15 K | 0.0525 | 0.0347 | 2.44e-05 | 4.71e-05 | 2.87e-05 | 2.68e-05
308.15 K | 0.0548 | 0.0369 | 3.18e-05 | 5.88e-05 | 3.52e-05 | 3.36e-05

From BigSolDB 2.1
